Measured values from patent publication US7084239B1, “Cancer peptides of NY-ESO-1/CAG-3” (The United States of America as represented by the …, priority 1997, dated 2006).

Legend:
Type in all cases: cell-based, human
CTL clone 5 = test: GM-CSF release by CTL clone 5 on peptide-pulsed EBV B cells; settings: for GM-CSF release by CTL clone 5, EXPT. 2 (586EBV): 586EBV cells; for GM-CSF release by CTL clone 5, EXPT. 2 (586EBV) / GM-CSF release by CTL clone 5, EXPT. 1 (1510EBV): peptide 0.1 μg/ml for 90 min, 5 × 10^4 CTL clone 5; for GM-CSF release by CTL clone 5, EXPT. 1 (1510EBV): 1510EBV cells; for CTL clone 5 GM-CSF release: 1510EBV cells incubated with peptide at 0.1 μg/ml for 90 min
Method: (§1) DNA transfection and GM-CSF assay were done as previously described (Wang, R. F., P. F. Robbins, Y. Kawakami, X. Q. Kang, and S. A. Rosenberg, 1995, J. Exp. Med. 181:799–804). Briefly, […] of DNA carrying a different fragment and 50 ng of the HLA-A31 DNA were mixed with 2 μl of lipofectamine in 100 μl of serum-free DMEM for 15–45 min. The DNA/lipofectamine mixture was then added to the COS-7 (5×10^4) cells and incubated overnight. The following day, cells were washed twice with DMEM medium. TIL586, CTL clone 5 or CTL clone 10 were added at a concentration of 5×10^4 cells/well in AIM-V medium containing 120 IU/ml of IL-2. After 18–24 h incubation, 100 μl of supernatant was collected and GM-CSF was measured in a standard ELISA assay (R+D Systems, Minneapolis, Minn.). For peptides, 586EBV, 1510EBV and T2 cells were incubated with peptides at 37° C. for 90 min, and then washed three times with AIM-V medium containing 120 IU/ml of IL-2. T cells were added and incubated for additional 18–24 h, 100 μl of supernatant was collected for GM-CSF assay. In some experiments, IFN-γ release assays were done using a standard ELISA kit (Endogen, Woburn, Mass.).
These peptides were pulsed onto HLA-A31-positive 1510EBV B cells and tested for their ability to stimulate cytokine release by CTL clone 5. […] CTL clone 10 recognized the same peptide as CTL clone 5 (data not shown). […] The reactivity of CTL clone 5 was undetectable when either the ESO9-54 or the ESO10-127 peptides were used at concentrations below 100 nM to sensitize EBV cells.

CTL clone 2 [1] = test: T cell recognition (GM-CSF release) of peptide-pulsed EBV B cells by CTL clone 2; settings: peptide pulsed onto 1510EBV or 586EBV B cells
Source text: (§2) FIGS. 7A–7C. An alternative open reading frame of the NY-ESO-1 gene and antigenic peptides recognized by CTL. FIG. 7A. Identification of antigenic peptides from the ORF2. Thirty peptides were synthesized based on all potential ORFs and screened. Representative data are shown here. Seven peptides derived from ORF2 (see FIG. 3A) were pulsed on HLA-A31 positive 1510EBV B cells and tested for T cell recognition based on GM-CSF release ([…], SEQ ID NO: 123; […], SEQ ID NO: 124; […], SEQ ID NO: 125; […], SEQ ID NO: 46; […], SEQ ID NO: 47; […], SEQ ID NO: 126; and […], SEQ ID NO: 127). 1510 EBV alone was used as a negative control. FIG. 7B. 1510EBV B cells were labeled with chromium for 2 h. The ESORF2-10-18 peptide was then pulsed on the chromium-labeled […] (solid square) and HLA-A31-negative 1102EBV (open circle) at different concentrations. 1510EBV pulsed with ESO10-53, which was recognized by CTL clone 5, was used for the specificity control (solid triangle). After peptide incubation and three washes, cytolysis of target cells by CTL-clone 2 was determined in a 4-h chromium release assay at an E:T ratio of 20:1. FIG. 7C. Several tumor lines and fresh breast tumors were tested for recognition by CTL clone 2 to determine whether the ORF2 is translated in different tumors. 1510EBV B cells pulsed with […] (SEQ ID NO: 25) (ESO10-53), […] (SEQ ID NO: 47) (ORF2-10-18), or alone were included to evaluate the reactivity and specificity of CTL clone 2 and 5. Expression of HLA-A31 on the tumor cells is indicated.
as §1, with “For peptides, 586EBV, 1510EBV and T2 cells were incubated with peptides at 37° C. for 90 min, and then washed three times with AIM-V medium containing 120 IU/ml of IL-2. T cells were added and incubated for additional 18–24 h, 100 μl of supernatant was collected for GM-CSF assay. In some experiments, IFN-γ release assays were done using a standard ELISA kit (Endogen, Woburn, Mass.).” left out
CTL clone 5 and TIL1244 were used for the specificity controls. […] To test the hypothesis that CTL may recognize a peptide from a gene product translated from an alternative open reading frame of the same gene, synthetic peptides were made with HLA-A31 Binding motif on the basis of amino acid sequence predicted from the second open reading frames (ORF2) (FIG. 3A). […]

CTL clone 2 [2] = test: Chromium release cytolysis of peptide-pulsed target cells by CTL clone 2; settings: 4-h chromium release, E:T ratio of 20:1 (FIG. 7B)
Source text: as §2, with “Expression of HLA-A31 on the tumor cells is indicated.” left out
Cytolytic assay was done as previously described (Kawakami, Y et al., 1994, Proc. Natl. Acad. Sci. USA 91:6458–62). […] The cells were washed again, counted, and then mixed with TIL586 or CTL clone 5 at the indicated ratio of effector: targets (E:T). Chromium release was measured after 4 h incubation. […] Percentage of specific lysis was determined from the equation (A−B)/(C−B)×100 where A is lysis of 586EBV B cells by TIL586 or clone 5 in the presence of a peptide, B is spontaneous release from 586EBV B cells in presence of the same peptide but in the absence of effector cells, and C is the maximum chromium release. […]

Row | Sequence | GM-CSF release by CTL clone 5, EXPT. 2 (586EBV) (CTL clone 5) | GM-CSF release by CTL clone 5, EXPT. 1 (1510EBV) (CTL clone 5) | CTL clone 5 GM-CSF release (CTL clone 5) | also measured
1 | AAGPGGGAPR (listed as Homo sapiens) | 676 (SEQ. ID NO: 34) | 688 | – | –
2 | AAQERRVPR (listed as Homo sapiens) [ESORF2-9-19] | – | – | – | Recognition by CTL clone 2, in words (CTL clone 2 [1]): recognized
3 | AARASGPGGGAPR (listed as Homo sapiens) | 738 (SEQ. ID NO: 28) | 844 | – | –
4 | AASGLNGCCR (listed as Homo sapiens) [ESO10-68] | – | – | <50 (SEQ. ID NO: 21) pg/ml | –
5 | AGAARASGPGGGAPR (listed as Homo sapiens) | 532 (SEQ. ID NO: 26) | 728 | – | –
6 | AIGPGGGAPR (listed as Homo sapiens) | 550 (SEQ. ID NO: 35) | 428 | – | –
7 | ALGPGGGAPR (listed as Homo sapiens) | 378 (SEQ. ID NO: 36) | 200 | – | –
8 | AQPPSGQRR (listed as Homo sapiens) [ESO9-90] | – | – | <50 (SEQ. ID NO: 6) pg/ml | –
9 | ARASGPGGGAPR (listed as Homo sapiens) | 738 (SEQ. ID NO: 29) | 840 | – | –
10 | ASGPGGGAPH (listed as Homo sapiens) | <50 (SEQ. ID NO: 40) | <50 | – | –
11 | ASGPGGGAPK (listed as Homo sapiens) | <50 (SEQ. ID NO: 39) | <50 | – | –
12 | ASGPGGGAPRG (listed as Homo sapiens) | <50 (SEQ. ID NO: 32) | <50 | – | –
13 | ATGPGGGAPR (listed as Homo sapiens) | 1158 (SEQ. ID NO: 38) | 1630 | – | –
14 | ATPMEAELAR (listed as Homo sapiens) [ESO10-97] | – | – | <50 (SEQ. ID NO: 17) pg/ml | –
15 | AVGPGGGAPR (listed as Homo sapiens) | 512 (SEQ. ID NO: 37) | 556 | – | –
16 | FLAQPPSGQR (listed as Homo sapiens) [ESO10-170] | – | – | <50 (SEQ. ID NO: 18) pg/ml | –
17 | GAARASGPGGGAPR (listed as Homo sapiens) | 678 (SEQ. ID NO: 27) | 659 | – | –
18 | GATGGRGPR (listed as Homo sapiens) [ESO9-38] | – | – | <50 (SEQ. ID NO: 9) pg/ml | –
19 | GPGGGAPR (listed as Homo sapiens) | <50 (SEQ. ID NO: 31) | <50 | – | –

Row | Sequence | GM-CSF release by CTL clone 5, EXPT. 2 (586EBV) (CTL clone 5) | GM-CSF release by CTL clone 5, EXPT. 1 (1510EBV) (CTL clone 5) | CTL clone 5 GM-CSF release (CTL clone 5) | also measured
20 | GPRGAGAAR (listed as Homo sapiens) [ESO9-45] | – | – | <50 (SEQ. ID NO: 10) pg/ml | –
21 | IRLTAADHR (listed as Homo sapiens) [ESO9-35] | – | – | <50 (SEQ. ID NO: 13) pg/ml | –
22 | LAAQERRVPR (listed as Homo sapiens) [ESORF2-10-18] | – | – | – | Lysis of peptide-pulsed HLA-A31-negative 1102EBV by CTL clone 2 (CTL clone 2 [2]): failed to lyse; Lysis of peptide-pulsed 1510EBV by CTL clone 2 (CTL clone 2 [2]; peptide titration): capable of lysing; Recognition by CTL clone 2, in words (CTL clone 2 [1]): recognized
23 | LAQPPSGQR (listed as Homo sapiens) [ESO9-89] | – | – | <50 (SEQ. ID NO: 11) pg/ml | –
24 | LAQPPSGQRR (listed as Homo sapiens) [ESO10-171] | – | – | <50 (SEQ. ID NO: 22) pg/ml | –
25 | LNGCCRCGAR (listed as Homo sapiens) [ESO10-72] | – | – | <50 (SEQ. ID NO: 24) pg/ml | –
26 | LSGPGGGAPR (listed as Homo sapiens) | <50 (SEQ. ID NO: 43) | <50 | – | –
27 | PMEAELARR [ESO9-99] | – | – | <50 (SEQ. ID NO: 8) pg/ml | –
28 | RASGPGGGAPR (listed as Homo sapiens) | 708 (SEQ. ID NO: 30) | 851 | – | –
29 | RCGARGPESR (listed as Homo sapiens) [ESO10-77] | – | – | <50 (SEQ. ID NO: 20) pg/ml | –
30 | RGPRGAGAAR (listed as Homo sapiens) [ESO10-44] | – | – | <50 (SEQ. ID NO: 23) pg/ml | –
31 | RSGPGGGAPR (listed as Homo sapiens) | <50 (SEQ. ID NO: 44) | <50 | – | –
32 | SGPGGGAPR (listed as Homo sapiens) [ESO9-54] | <50 (SEQ. ID NO: 14) | <50 | 304 (SEQ. ID NO: 14) pg/ml | Recognition by CTL clone 5 (cytokine release), in words (CTL clone 5; peptide pulsed onto HLA-A31-positive 1510EBV or 586EBV B cells): weakly recognized
33 | SGPGGGAPRG (listed as Homo sapiens) | <50 (SEQ. ID NO: 33) | <50 | – | –
34 | TIRLTAADHR (listed as Homo sapiens) [ESO10-34] | – | – | <50 (SEQ. ID NO: 16) pg/ml | –
35 | TPMEAELAR (listed as Homo sapiens) [ESO9-98] | – | – | <50 (SEQ. ID NO: 7) pg/ml | –
36 | TPMEAELARR (listed as Homo sapiens) [ESO10-98] | – | – | <50 (SEQ. ID NO: 19) pg/ml | –
37 | TSGPGGGAPR (listed as Homo sapiens) | 346 (SEQ. ID NO: 41) | 320 | – | –
38 | VSGPGGGAPR (listed as Homo sapiens) | 666 (SEQ. ID NO: 42) | 825 | – | –
